Assay results reported in patent publication US6436948B1, “Method for the treatment of psoriasis and genital warts” (priority 1995, dated 2002).

Experiments:
HCT-116 = assay: NCI cancer screening program, SRB: HCT-116; assay type: cell-based; conditions: Colon Cancer, PG +50, 48 hours
[1] = system: PC-3 prostate carcinoma line; assay: In vitro cytotoxicity, methylene blue assay / cell count: PC-3; assay type: cell-based; conditions: three generations, mean ± standard deviation of five experiments, read-out: ID50 (the source's name)
MDA-N = assay: NCI cancer screening program, SRB: MDA-N; assay type: cell-based; conditions: Breast Cancer, PG +50, 48 hours
SK-OV-3 = assay: NCI cancer screening program, SRB: SK-OV-3; assay type: cell-based; conditions: Ovarian Cancer
[2] = Phosphorylation to nucleotides in vivo
Leukemia P388 cells = assay: In vivo treatment of leukemia P388 cells implanted ip in BDF1 mice; conditions: 25x2x5 mg/kg ip
Description: 10^6 Leukemia P388 cells were implanted ip to BDF1 mice obtained from Southern Research Institute, Alabama. (−)-OddC was administered ip twice daily for five days starting one day after tumor cell implantation.
FIG. 3 and Table 1 show the results of these studies.

OVCAR-4 = assay: NCI cancer screening program, SRB: OVCAR-4; assay type: cell-based; conditions: Ovarian Cancer, PG +50, 48 hours
OVCAR-8 = assay: NCI cancer screening program, SRB: OVCAR-8; assay type: cell-based; conditions: Ovarian Cancer
NCI-H522 = assay: NCI cancer screening program, SRB: NCI-H522; assay type: cell-based; conditions: Non-Small Cell Lung Cancer, PG +50, 48 hours
SP-295 = conditions: CNS Cancer, PG +50, 48 hours
Description: (§1) GI50, TGI and LC50 are values representing the concentrations at which the PG (percent of growth inhibition), defined below, is +50, 0, and −50, respectively.
(§2) If (Mean ODtest−Mean ODtzero)≧0. then PG=100×(Mean ODtest−Mean ODtzero)/(Mean ODctrl−Mean ODtzero)
(§3) If (Mean ODtest−Mean ODtzero)<0. then PG=100×(Mean ODtest−Mean ODtzero)/(Mean ODtzero)
(§4) Mean ODtzero=The average of optical density measurements of SRB-derived color just before exposure of cells to the test compound.
(§5) Mean ODtestThe average of optical density measurements of SRB-derived color after 48 hours exposure of cells to the test compound.
(§6) Mean ODctrl=The average of optical density measurements of SRB-derived color after 48 hours with no exposure of cells to the test compound.
(§7) If these response parameters could not be obtained by interpolation, the value given for each response parameter is the highest concentration tested and is preceded by a “>” sign.

SK-MEL-5 = assay: NCI cancer screening program, SRB: SK-MEL-5; assay type: cell-based; conditions: Melanoma, PG +50, 48 hours
ACHN = assay: NCI cancer screening program, SRB: ACHN; assay type: cell-based; conditions: Renal Cancer, PG +50, 48 hours
RXF-393 = assay: NCI cancer screening program, SRB: RXF-393; assay type: cell-based; conditions: Renal Cancer, PG +50, 48 hours
TK-30 = conditions: Renal Cancer
Description: as §1, §2, §3, §4, §5, §6, §7

K-562 = assay: NCI cancer screening program, SRB: K-562; assay type: cell-based; conditions: Leukemia, PG +50, 48 hours
BT-549 = assay: NCI cancer screening program, SRB: BT-549; assay type: cell-based; conditions: Breast Cancer, PG +50, 48 hours
HS578T = assay: NCI cancer screening program, SRB: HS578T; assay type: cell-based; conditions: Breast Cancer, PG +50, 48 hours
RL-60(TB) = assay: NCI cancer screening program, SRB: RL-60(TB); assay type: cell-based
tumor cell lines tested = assay: In vitro cytotoxicity, statement on all tumor cell lines tested; assay type: cell-based; conditions: all of the tumor cell lines tested
OVCAR-3 = assay: NCI cancer screening program, SRB: OVCAR-3; assay type: cell-based; conditions: Ovarian Cancer
K2112 = conditions: Colon Cancer
Description: as §1, §2, §3, §4, §5, §6, §7

BSOLT-4 = assay: NCI cancer screening program, SRB: BSOLT-4; assay type: cell-based; conditions: Leukemia, PG +50, 48 hours
[3] = system: KB nasopharyngeal carcinoma cell line; assay: In vitro cytotoxicity, methylene blue assay / cell count: KB; assay type: cell-based; conditions: three generations, mean ± standard deviation of five experiments, read-out: ID50 (the source's name)
HCT-15 = assay: NCI cancer screening program, SRB: HCT-15; assay type: cell-based; conditions: Colon Cancer, PG +50, 48 hours
MDA-MB-435 = assay: NCI cancer screening program, SRB: MDA-MB-435; assay type: cell-based; conditions: Breast Cancer
UACC-62 = assay: NCI cancer screening program, SRB: UACC-62; assay type: cell-based; conditions: Melanoma, PG +50, 48 hours
PC-3 = assay: NCI cancer screening program, SRB: PC-3; assay type: cell-based; conditions: Prostate Cancer, PG +50, 48 hours
BDF1 mice = assay: Toxicity to BDF1 mice, ip twice daily for five days; assay type: in vivo; conditions: 75 mg/kg/dose ip twice daily for five days
U251 = assay: NCI cancer screening program, SRB: U251; assay type: cell-based; conditions: CNS Cancer, PG +50, 48 hours
CCRF-CEM = assay: NCI cancer screening program, SRB: CCRF-CEM; assay type: cell-based; conditions: Leukemia, log10 concentration at PG +50, 48 hours
MDA-MB-231/ATCC = conditions: Breast Cancer, PG +50, 48 hours
Description: as §1, §2, §3, §4, §5, §6, §7

NCI-H23 = assay: NCI cancer screening program, SRB: NCI-H23; assay type: cell-based; conditions: Non-Small Cell Lung Cancer, PG +50, 48 hours

## Nc1ccn([C@@H]2CO[C@H](CO)O2)c(=O)n1 [(−)-OddC, (−)-(2S,4S)-1-(2-hydroxymethyl-1,3-dioxolan-4-yl)cytosine]
HCT-116
  Log10GI50: −5.23
[1]
  IC50: 56 ± 39 nM
MDA-N
  LOG10GI50: −4.33
SK-OV-3; PG 0, 48 hours
  LOG10TGI: >−4.00
SK-OV-3; PG +50, 48 hours
  LOG10GI50: −5.35
[2]
  Phosphorylation in vivo: can be phosphorylated to mono-, di- and tri-phosphate nucleotide
Leukemia P388 cells
  Cures/Total (survivors equal or greater than 45 day life span): one long term survivor
Leukemia P388 cells; twice a day on days 1 to 5, 10^6 P388 cells ip on day 0
  Mean Survival Time: 27 days
OVCAR-4
  LOG10GI50: >−4.00
OVCAR-8; PG 0, 48 hours
  LOG10TGI: >−4.00
OVCAR-8; PG +50, 48 hours
  LOG10GI50: −5.82
NCI-H522
  Log10GI50: −6.06
SP-295
  Log10GI50: −6.24
SK-MEL-5
  Log10GI50: −4.91
ACHN
  LOG10GI50: −6.46
RXF-393
  LOG10GI50: −6.17
TK-30; PG 0, 48 hours
  LOG10TGI: >−4.00
TK-30; PG +50, 48 hours
  LOG10GI50: >−4.00
K-562
  Log10GI50: −4.59
BT-549
  LOG10GI50: −4.59
HS578T
  LOG10GI50: >−4.00
RL-60(TB)
  Log10GI50: −6.28
Tumor cell lines tested
  Cytotoxicity in words: more cytotoxic than AraC
OVCAR-3; PG 0, 48 hours
  LOG10TGI: >−4.00
OVCAR-3; PG +50, 48 hours
  LOG10GI50: −4.44
K2112; PG 0, 48 hours
  Log10TGI: >−4.00
K2112; PG +50, 48 hours
  Log10GI50: >−4.00
BSOLT-4
  Log10GI50: −6.66
[3]
  IC50: 48 ± 21 nM
HCT-15
  Log10GI50: −5.39
MDA-MB-435; PG 0, 48 hours
  LOG10TGI: >−4.00
MDA-MB-435; PG +50, 48 hours
  LOG10GI50: −4.62
UACC-62
  LOG10GI50: −5.53
PC-3
  LOG10GI50: −6.29
BDF1 mice
  Toxicity to the mice: toxic
U251
  Log10GI50: −4.91
CCRF-CEM
  Log10GI50: −6.64
MDA-MB-231/ATCC
  LOG10GI50: >−4.00
NCI-H23
  Log10GI50: −4.92
